# Data taken from ChEMBL document CHEMBL3390847, “Boronic acids in medicinal chemistry: anticancer, antibacterial and antiviral applications” (Medchemcomm, 2010).
# What was measured:
# Staphylococcus aureus = assay: Antimicrobial activity against Staphylococcus aureus […] after 18 hrs by broth macrodilution assay; format: functional
# [1] = tested on: Staphylococcus epidermidis; assay: Antimicrobial activity against Staphylococcus epidermidis ATCC 12228 after 18 hrs by broth macrodilution assay; format: functional; settings: ATCC 12228, 18 h
# Bacillus subtilis = assay: Antimicrobial activity against Bacillus subtilis ATCC 23857 after 18 hrs by broth macrodilution assay; format: functional; settings: ATCC 23857, 18 h
# [2] = biological target: T1, Proteasome Macropain subunit MB1 (Homo sapiens, UniProt P28074); assay: Inhibition of chymotrypsin-like activity of proteasome beta5 subunit (unknown origin)
# T1 sequence (P28074 whole entry): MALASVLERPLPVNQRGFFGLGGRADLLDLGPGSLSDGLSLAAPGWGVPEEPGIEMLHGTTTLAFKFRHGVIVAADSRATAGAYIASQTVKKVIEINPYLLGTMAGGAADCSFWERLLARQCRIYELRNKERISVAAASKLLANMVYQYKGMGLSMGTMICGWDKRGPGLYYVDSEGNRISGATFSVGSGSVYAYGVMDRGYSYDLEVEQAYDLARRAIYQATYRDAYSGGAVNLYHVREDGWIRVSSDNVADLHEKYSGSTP
# [3] = biological target: T2, Proteasome subunit beta type-7 (Homo sapiens, UniProt Q99436); assay: Inhibition of trypsin-like activity of proteasome beta7 subunit (unknown origin)
# T2 sequence (Q99436 whole entry): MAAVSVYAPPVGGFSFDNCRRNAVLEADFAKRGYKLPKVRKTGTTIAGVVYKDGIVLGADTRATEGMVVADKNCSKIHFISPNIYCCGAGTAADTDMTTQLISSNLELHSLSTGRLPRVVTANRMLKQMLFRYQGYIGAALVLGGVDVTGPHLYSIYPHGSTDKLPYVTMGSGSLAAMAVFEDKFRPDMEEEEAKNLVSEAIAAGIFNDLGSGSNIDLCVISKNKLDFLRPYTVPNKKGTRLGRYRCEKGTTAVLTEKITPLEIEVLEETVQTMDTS
# [4] = Inhibition of post-glutamyl peptide hydrolysis proteasome subunit (unknown origin); design: species or system Homo sapiens
# Tubulin [5] = assay: Inhibition of tubulin polymerization (unknown origin); format: protein-complex assay, Homo sapiens
# MCF7 = assay: Cytotoxicity against human MCF7 cells; format: functional, cell-based
# [6] = Inhibition of tubulin polymerization in rat A10 cells assessed as microtubule loss; format: cell-based
# [7] = Inhibition of beta-lactamase SHV-1 (unknown origin) expressed in Escherichia coli DH10B using nitrocefin as substrate
# [8] = Inhibition of beta-lactamase SHV-1 D104K/G238S mutant (unknown origin) expressed in Escherichia coli DH10B using nitrocefin as substrate
# B16 = assay: Cytotoxicity against mouse B16 cells; format: functional, cell-based
# [9] = Cytotoxicity against human 1-87 cells; format: functional, cell-based
# Tubulin [10] = assay: Inhibition of tubulin polymerization (unknown origin) after 30 mins; format: protein-complex assay, Homo sapiens
# Moraxella catarrhalis = assay: Antimicrobial activity against Moraxella catarrhalis after 18 hrs by broth macrodilution assay; format: functional
# [11] = Inhibition of AmpC beta-lactamase (unknown origin)
# [12] = Inhibition of AmpC beta-lactamase N289A mutant (unknown origin)
# [13] = Inhibition of TEM-1 (unknown origin)
# [14] = Inhibition of TEM-30 (unknown origin)
# [15] = Inhibition of alpha-chymotrypsin (unknown origin); design: species or system Homo sapiens
# [16] = biological target: T3, Epidermal growth factor receptor (Homo sapiens, UniProt P00533); assay: Inhibition of EGFR kinase (unknown origin) using poly(Glu:Tyr) as substrate at 1 uM
# [17] = biological target: T3, Epidermal growth factor receptor; assay: Inhibition of EGFR kinase (unknown origin) using poly(Glu:Tyr) as substrate
# A-431 = assay: Cytotoxicity against human A431 cells; format: functional
# [18] = Inhibition of beta-lactamase SHV2 G238S mutant (unknown origin) expressed in Escherichia coli DH10B using nitrocefin as substrate
# [19] = Inhibition of beta-lactamase SHV2 D104K mutant (unknown origin) expressed in Escherichia coli DH10B using nitrocefin as substrate
# [20] = Inhibition of YFV recombinant NS3 protease expressed in Escherichia coli using Bz-nKRR-AMC as substrate after 30 mins; design: species or system Yellow fever virus
# T3 sequence (P00533 whole entry): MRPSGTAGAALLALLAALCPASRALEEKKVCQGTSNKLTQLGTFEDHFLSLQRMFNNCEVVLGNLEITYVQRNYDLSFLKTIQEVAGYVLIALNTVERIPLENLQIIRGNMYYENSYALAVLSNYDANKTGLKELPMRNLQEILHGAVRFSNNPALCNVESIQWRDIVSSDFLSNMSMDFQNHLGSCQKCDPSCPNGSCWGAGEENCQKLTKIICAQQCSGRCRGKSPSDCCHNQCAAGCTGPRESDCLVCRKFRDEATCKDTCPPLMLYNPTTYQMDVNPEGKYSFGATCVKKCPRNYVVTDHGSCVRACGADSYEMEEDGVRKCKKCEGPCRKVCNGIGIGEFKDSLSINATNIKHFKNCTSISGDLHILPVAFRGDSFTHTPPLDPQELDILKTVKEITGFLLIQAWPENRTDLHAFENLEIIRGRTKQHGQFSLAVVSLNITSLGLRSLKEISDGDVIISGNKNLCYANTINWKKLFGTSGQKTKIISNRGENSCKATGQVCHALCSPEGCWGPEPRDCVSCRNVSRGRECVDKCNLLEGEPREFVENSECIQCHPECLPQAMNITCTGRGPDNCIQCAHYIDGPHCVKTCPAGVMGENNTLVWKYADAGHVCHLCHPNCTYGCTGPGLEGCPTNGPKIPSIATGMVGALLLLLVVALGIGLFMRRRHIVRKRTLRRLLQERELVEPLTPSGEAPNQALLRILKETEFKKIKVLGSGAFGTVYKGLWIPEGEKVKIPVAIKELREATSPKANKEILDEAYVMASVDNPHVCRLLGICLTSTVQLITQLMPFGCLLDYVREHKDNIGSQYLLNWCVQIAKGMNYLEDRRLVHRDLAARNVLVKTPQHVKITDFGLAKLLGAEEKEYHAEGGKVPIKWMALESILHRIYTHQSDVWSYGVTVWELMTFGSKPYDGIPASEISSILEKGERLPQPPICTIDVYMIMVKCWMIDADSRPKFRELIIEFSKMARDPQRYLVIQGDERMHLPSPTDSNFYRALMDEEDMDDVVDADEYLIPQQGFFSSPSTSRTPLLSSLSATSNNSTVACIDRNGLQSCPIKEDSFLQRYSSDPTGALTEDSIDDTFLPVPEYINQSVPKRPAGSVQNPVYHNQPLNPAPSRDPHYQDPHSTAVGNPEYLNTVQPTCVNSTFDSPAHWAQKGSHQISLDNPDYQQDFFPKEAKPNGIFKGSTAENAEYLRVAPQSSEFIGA
structure (smiles),measurement,setting,value
Cc1ccc2cccc(OB(c3ccc(Cl)cc3)c3ccc(Cl)cc3)c2n1,MIC,Staphylococcus aureus,16 mg/L
same,MIC,[1],8 mg/L
Clc1ccc(C(Oc2cccc3cccnc23)c2ccc(Cl)cc2)cc1,MIC,Staphylococcus aureus,> 64 mg/L
same,MIC,[1],> 64 mg/L
same,MIC,Bacillus subtilis,> 64 mg/L
CC(C)C[C@H](NC(=O)[C@H](Cc1ccccc1)NC(=O)[C@H](Cc1ccccc1)NC(=O)c1cnccn1)B(O)O,IC50,[2],0.00055 µM
same,IC50,[3],> 0.02 µM
same,IC50,[4],0.0109 µM
COc1cc(C(=O)/C=C/c2cc(OC)c(OC)c(OC)c2)ccc1O,IC50,Tubulin [5],> 40 µM
same,IC50,MCF7,> 2.5 µM
same,EC50,[6],18 µM
CC(=O)NCB(O)O [ACETAMIDOMETHYLBORONIC ACID],Ki,[7],8.9 µM
same,Ki,[8],1.1 µM
COc1ccc(/C=C\c2cc(OC)c(OC)c(OC)c2)cc1C(=O)O,IC50,B16,160 µM
same,IC50,[9],110 µM
same,IC50,Tubulin [10],> 100 µM
C=CB(Oc1cccc2cccnc12)c1ccccc1,MIC,Staphylococcus aureus,2 mg/L
same,MIC,[1],1 mg/L
same,MIC,Moraxella catarrhalis,2 mg/L
Clc1cccc(B(Oc2ccc(Cl)c3cccnc23)c2cccc(Cl)c2)c1,MIC,Staphylococcus aureus,0.5 mg/L
same,MIC,[1],0.25 mg/L
same,MIC,Bacillus subtilis,32 mg/L
same,MIC,Moraxella catarrhalis,≤ 0.125 mg/L
COc1cc(/C=C\c2cccc(B(O)O)c2)cc(OC)c1OC,IC50,B16,0.49 µM
same,IC50,[9],2.1 µM
same,IC50,Tubulin [10],> 100 µM
CC(C)C[C@H](NC(=O)[C@H](Cc1ccccc1)NC(=O)[C@H](Cc1ccc2ccccc2c1)NC(=O)c1cnccn1)B(O)O,IC50,[2],0.00042 µM
same,IC50,[3],> 0.02 µM
same,IC50,[4],0.00443 µM
O=C(Cc1cccs1)N[C@H](B(O)O)c1cccc(C(=O)O)c1,Ki,[11],0.001 µM
same,Ki,[12],0.017 µM
same,Ki,[13],0.064 µM
same,Ki,[14],7.8 µM
OCc1ccccc1 [BENZYL ALCOHOL],Ki,[15],10000 µM
OB(O)c1ccccc1 [PHENYLBORONIC ACID],Ki,[15],196 µM
CC(C)C[C@H](NC(=O)[C@H](Cc1ccccc1)NC(=O)[C@H](Cc1ccccc1)NC(=O)c1cnccn1)B1O[C@@H]2[C@H]3CC[C@H](C3(C)C)[C@]2(C)O1,IC50,[2],0.0004 µM
same,IC50,[3],> 0.02 µM
same,IC50,[4],0.00833 µM
COc1cc(/C=C/C(=O)c2cc(OC)c(OC)c(OC)c2)ccc1O,IC50,Tubulin [5],2.6 µM
same,IC50,MCF7,0.11 µM
same,EC50,[6],0.98 µM
OB(O)/C=C/COc1ccc2ncnc(Nc3cccc(Cl)c3)c2c1,inhibition,[16],63%
same,IC50,[17],0.27 µM
same,GI50,A-431,0.68 µM
CC1(C)[C@H]2CC3OB(COc4ccc5ncnc(Nc6cccc(Cl)c6)c5c4)O[C@@]3(C)[C@@H]1C2 (stereo partly specified),inhibition,[16],65%
same,IC50,[17],0.2 µM
same,GI50,A-431,0.54 µM
COc1cc(C(=O)/C=C/c2cc(OC)c(OC)c(OC)c2)ccc1B(O)O,IC50,Tubulin [5],> 40 µM
same,IC50,MCF7,> 2.5 µM
same,EC50,[6],> 15 µM
CC(C)C[C@H](NC(=O)[C@H](Cc1ccc2ccccc2c1)NC(=O)[C@H](CC(C)C)NC(=O)c1cnccn1)B1O[C@@H]2[C@H]3CC[C@H](C3(C)C)[C@]2(C)O1,IC50,[2],0.00038 µM
same,IC50,[3],> 0.02 µM
same,IC50,[4],0.00391 µM
CO/N=C(/C(=O)NCB(O)O)c1csc(N)n1,Ki,[18],6.8 µM
same,Ki,[19],0.7 µM
CCCC[C@H](NC(=O)c1ccccc1)C(=O)N[C@@H](CCCCN)C(=O)N[C@@H](CCCCN)C(=O)N[C@@H](CCCNC(=N)N)B(O)O,Ki,[20],0.05 µM
